According to patent US20250161307A1, “PYRAZOLOPYRIMIDINES AS MODULATORS OF SPERMINE OXIDASE” (Janssen Pharmaceutica NV, priority 2022, published 2025):
Structures can show the parent of a compound that is named as a salt.

Tests used:
SMOX = SMOX (Homo sapiens (Human), UniProt Q9NWM0); assay: Human SMOX assay (HyPerBlu chemiluminescent detection of hydrogen peroxide); type: biochemical; conditions: 2.5 nM full length hSMOX, spermine substrate, 1 h at room temperature, luminescence read; read-out: SMOx_IC50
SMOX, sequence (Q9NWM0 whole entry): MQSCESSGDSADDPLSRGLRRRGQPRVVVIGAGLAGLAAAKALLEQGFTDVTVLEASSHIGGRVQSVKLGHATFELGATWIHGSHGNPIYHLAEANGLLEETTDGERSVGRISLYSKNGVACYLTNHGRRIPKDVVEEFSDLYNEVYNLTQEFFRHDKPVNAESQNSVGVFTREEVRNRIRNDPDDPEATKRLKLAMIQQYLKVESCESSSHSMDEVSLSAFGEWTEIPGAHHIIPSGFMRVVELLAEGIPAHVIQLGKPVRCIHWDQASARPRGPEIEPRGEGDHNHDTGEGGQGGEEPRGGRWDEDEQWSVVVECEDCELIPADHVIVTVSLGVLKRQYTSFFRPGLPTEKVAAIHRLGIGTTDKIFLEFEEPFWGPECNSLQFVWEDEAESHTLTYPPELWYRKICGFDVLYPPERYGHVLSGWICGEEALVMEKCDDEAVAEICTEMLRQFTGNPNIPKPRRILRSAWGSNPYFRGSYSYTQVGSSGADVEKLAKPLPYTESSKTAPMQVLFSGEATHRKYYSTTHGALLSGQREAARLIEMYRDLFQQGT
Protocol: (§1) The direct detection of hydrogen peroxide produced from the enzymatic reaction of hSMOX or hPAOX in a biochemical assay format was measured using HyPerBlu (Lumigen, Southfield, MI), a small molecule boronate probe that reacts with hydrogen peroxide to generate a chemiluminescent signal. Inhibition of hSMOX or hPAOX enzyme results in a decrease in luminescence.
Test compounds (75 nL) dissolved in DMSO were added to a 384-well white assay plate (Greiner Bio-one, catalog #784075) using an ECHO Acoustic Dispenser (Labcyte). Each compound was serially diluted 3-fold in DMSO to prepare an 11-point dose response curve (columns 1-22). Column 23 and 24 contained 75 nL of 2 mM chlorhexidine and DMSO, respectively, to represent the 100% inhibited versus the neutral control reactions.
Subsequently, 3 μL/well of the substrate solution prepared in assay buffer (10 mM Hepes, pH 7.4, 150 mM NaCl, 1 mM EGTA, 0.01% Pluronic F-127, 0.05% ovalbumin) was dispensed into the assay plate followed by 3 μL/well of full length hSMOX enzyme with an N-terminal His tag from E. coli prepared in assay buffer to initiate the reactions. After a 1 h incubation at room temperature, 6 μL/well of HyPerBlu was added. After a 30 min incubation, the hydrogen peroxide product generated from the hSMOX reactions was measured using an endpoint luminescence read on the PHERAStar FS/FSX microplate reader (BMG LABTECH).
The final assay conditions included 10 mM Hepes, pH 7.4, 150 mM NaCl, 1 mM EGTA, 0.01% Pluronic F-127, 0.05% ovalbumin, 2.5 nM hSMOX, 30 µM spermine, and 1.25% DMSO.
Dose-response curves were fit and compound IC50 values were determined using Genedata Screener (Genedata AG).

hPAOX = hPAOX (Homo sapiens (Human), UniProt Q6QHF9); assay: Human PAOX assay (HyPerBlu chemiluminescent detection of hydrogen peroxide); type: biochemical; conditions: 60 pM recombinant PAOX, 20 μM N-acetylspermine substrate
hPAOX, sequence (Q6QHF9 whole entry): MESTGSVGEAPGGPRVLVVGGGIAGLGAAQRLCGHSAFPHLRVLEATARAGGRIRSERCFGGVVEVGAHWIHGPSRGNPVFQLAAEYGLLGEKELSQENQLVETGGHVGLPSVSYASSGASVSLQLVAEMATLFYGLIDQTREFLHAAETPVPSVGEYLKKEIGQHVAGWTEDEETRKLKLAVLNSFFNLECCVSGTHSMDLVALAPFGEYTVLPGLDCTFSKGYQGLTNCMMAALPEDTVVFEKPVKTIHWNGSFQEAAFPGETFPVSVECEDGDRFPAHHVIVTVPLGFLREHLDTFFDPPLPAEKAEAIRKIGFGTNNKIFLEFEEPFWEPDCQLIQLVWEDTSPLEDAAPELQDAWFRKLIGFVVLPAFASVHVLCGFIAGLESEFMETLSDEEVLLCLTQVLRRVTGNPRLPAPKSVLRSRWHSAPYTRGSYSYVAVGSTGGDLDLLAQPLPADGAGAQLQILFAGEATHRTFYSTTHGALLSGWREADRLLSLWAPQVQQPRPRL
Protocol: as §1
The hPAOX assay was run and the data analyzed similarly to the hSMOX assay described above, except the reactions contained 60 pM recombinant PAOX with an N-terminal His tag expressed from sf9 insect cells and used 20 μM N-acetylspermine as the substrate.

Structure (SMILES) | IC50 (SMOX) [µM] | IC50 (hPAOX) [µM]
Cc1c(C(=O)NCC2(C)CCN(C)C2)nn2c(-c3ccccc3)cc(-c3ccccc3)nc12 (stereo not shown) [Example 54, N-((1,3-Dimethylpyrrolidin-3-yl)methyl)-3-methyl-5,7-diphenylpyrazolo[1,5-a]pyrimidine-2-carboxamide] | 1.49 | 30.3
CC1C(NC(=O)c2cc3nc(-c4ccccc4)cc(-c4ccccc4)n3n2)CN1C (stereo not shown) [Example 55, N-(1,2-Dimethylazetidin-3-yl)-5,7-diphenylpyrazolo[1,5-a]pyrimidine-2-carboxamide] | 0.593 | 6.53
O=C(NCCCn1ccnc1)c1cc2nc(-c3ccccc3)cc(N3CCC3)n2n1 [Example 56, N-(3-(1H-Imidazol-1-yl)propyl)-7-(azetidin-1-yl)-5-phenylpyrazolo[1,5-a]pyrimidine-2-carboxamide] | 0.874 | 3.73
O=C(NCCCn1ccnc1)c1cc2nc(-c3ccccc3)cc(N3CCOCC3)n2n1 [Example 59, N-(3-(1H-Imidazol-1-yl)propyl)-7-morpholino-5-phenylpyrazolo[1,5-a]pyrimidine-2-carboxamide] | 2.88 | 5.71
CN1CCN(c2cc(-c3ccccc3)nc3cc(C(=O)NCCCn4ccnc4)nn23)CC1 [Example 60, N-(3-(1H-Imidazol-1-yl)propyl)-7-(4-methylpiperazin-1-yl)-5-phenylpyrazolo[1,5-a]pyrimidine-2-carboxamide] | > 31.2 | 24.8
O=C(NCCCn1ccnc1)c1cc2nc(-c3ccccc3)cc(N3CC4CC4C3)n2n1 (stereo not shown) [Example 61, N-(3-(1H-Imidazol-1-yl)propyl)-7-(3-azabicyclo[3.1.0]hexan-3-yl)-5-phenylpyrazolo[1,5-a]pyrimidine-2-carboxamide] | 0.486 | 3.93
O=C(NCCCn1ccnc1)c1cc2nc(-c3ccccc3)cc(NC3CCC3)n2n1 [Example 64, N-(3-(1H-Imidazol-1-yl)propyl)-7-(cyclobutylamino)-5-phenylpyrazolo[1,5-a]pyrimidine-2-carboxamide] | 0.779 | 1.46
O=C(NCCCn1ccnc1)c1cc2nc(-c3ccccc3)cc(NC3CCCC3)n2n1 [Example 65, N-(3-(1H-imidazol-1-yl)propyl)-7-(cyclopentylamino)-5-phenylpyrazolo[1,5-a]pyrimidine-2-carboxamide] | 0.595 | 2.45
O=C(NCCCn1ccnc1)c1cc2nc(-c3ccccc3)cc(N3CCCC3)n2n1 [Example 66, N-(3-(1H-imidazol-1-yl)propyl)-5-phenyl-7-(pyrrolidin-1-yl)pyrazolo[1,5-a]pyrimidine-2-carboxamide] | 0.395 | 2.5
CN1CC(NC(=O)c2cc3nc(-c4ccccc4)cc(N4CCC[C@@H](O)C4)n3n2)C1 [Example 67, (R)-7-(3-hydroxypiperidin-1-yl)-N-(1-methylazetidin-3-yl)-5-phenylpyrazolo[1,5-a]pyrimidine-2-carboxamide] | 0.177 | 3.6
CN(C)CCCNC(=O)c1cc2nc(-c3ccccc3)cc(N3CCCCC3)n2n1 [Example 70, N-(3-(dimethylamino)propyl)-5-phenyl-7-(piperidin-1-yl)pyrazolo[1,5-a]pyrimidine-2-carboxamide] | 0.93 | 3.36
CN1CCC(NC(=O)c2cc3nc(-c4ccccc4)cc(N4CCCCC4)n3n2)C1 (stereo not shown) [Example 71, N-(1-methylpyrrolidin-3-yl)-5-phenyl-7-(piperidin-1-yl)pyrazolo[1,5-a]pyrimidine-2-carboxamide trifluoroacetate] | 0.988 | 5.36
CN1CCC(NC(=O)c2cc3nc(-c4ccccc4)cc(N4CCCCC4)n3n2)CC1 [Example 74, N-(1-methylpiperidin-4-yl)-5-phenyl-7-(piperidin-1-yl)pyrazolo[1,5-a]pyrimidine-2-carboxamide] | 17.7 | 9.83
CC(C)Oc1cc(-c2ccccc2)nc2cc(C(=O)NC3CN(C)C3)nn12 [Example 75, 7-isopropoxy-N-(1-methylazetidin-3-yl)-5-phenylpyrazolo[1,5-a]pyrimidine-2-carboxamide] | 0.737 | 26.7
CN1CC(NC(=O)c2cc3nc(-c4ccccc4)cc(Oc4ccccc4)n3n2)C1 [Example 76, N-(1-methylazetidin-3-yl)-7-phenoxy-5-phenylpyrazolo[1,5-a]pyrimidine-2-carboxamide] | 0.725 | 5.37
CC(=O)Nc1cccc(-c2cc(-c3ccccc3)nc3cc(C(=O)NCCCn4ccnc4)nn23)c1 [Example 77, N-(3-(1H-imidazol-1-yl)propyl)-7-(3-acetamidophenyl)-5-phenylpyrazolo[1,5-a]pyrimidine-2-carboxamide] | 0.519 | 0.544
COc1ccccc1-c1cc(-c2ccccc2)nc2cc(C(=O)NCCCn3ccnc3)nn12 [Example 80, N-(3-(1H-imidazol-1-yl)propyl)-7-(2-methoxyphenyl)-5-phenylpyrazolo[1,5-a]pyrimidine-2-carboxamide] | 0.285 | 0.289
COc1cccc(-c2cc(-c3ccccc3)nc3cc(C(=O)NCCCn4ccnc4)nn23)c1 [Example 82, N-(3-(1H-imidazol-1-yl)propyl)-7-(3-methoxyphenyl)-5-phenylpyrazolo[1,5-a]pyrimidine-2-carboxamide] | 0.256 | 0.291
Cc1ccc(-c2cc(-c3ccccc3)nc3cc(C(=O)NCCCn4ccnc4)nn23)cc1 [Example 83, N-(3-(1H-imidazol-1-yl)propyl)-5-phenyl-7-(p-tolyl)pyrazolo[1,5-a]pyrimidine-2-carboxamide] | 0.681 | 0.818
O=C(NCCCn1ccnc1)c1cc2nc(-c3ccccc3)cc(-c3ccc4nonc4c3)n2n1 [Example 84, N-(3-(1H-imidazol-1-yl)propyl)-7-(benzo[c][1,2,5]oxadiazol-5-yl)-5-phenylpyrazolo[1,5-a]pyrimidine-2-carboxamide] | 0.33 | 1.31
Cn1ccc(-c2cc(-c3ccccc3)nc3cc(C(=O)NCCCn4ccnc4)nn23)n1 [Example 85, N-(3-(1H-imidazol-1-yl)propyl)-7-(1-methyl-1H-pyrazol-3-yl)-5-phenylpyrazolo[1,5-a]pyrimidine-2-carboxamide] | 0.812 | 2.37
O=C(NCCCn1ccnc1)c1cc2nc(-c3ccccc3)cc(-c3cccc(O)c3)n2n1 [Example 87, N-(3-(1H-imidazol-1-yl)propyl)-7-(3-hydroxyphenyl)-5-phenylpyrazolo[1,5-a]pyrimidine-2-carboxamide] | 0.303 | 0.387
CN1CC(NC(=O)c2cc3nc(-c4ccccc4)cc(-c4ncccn4)n3n2)C1 [Example 93, N-(1-methylazetidin-3-yl)-5-phenyl-7-(pyrimidin-2-yl)pyrazolo[1,5-a]pyrimidine-2-carboxamide] | 0.996 | 0.643
CC(=O)Nc1ccc(-c2cc(-c3ccccc3)nc3cc(C(=O)NCCCn4ccnc4)nn23)cc1 [Example 95, N-(3-(1H-imidazol-1-yl)propyl)-7-(4-acetamidophenyl)-5-phenylpyrazolo[1,5-a]pyrimidine-2-carboxamide] | > 31.2 | 2.07
O=C(NCCCn1ccnc1)c1cc2nc(-c3ccccc3)cc(-c3cccnc3)n2n1 [Example 96, N-(3-(1H-imidazol-1-yl)propyl)-5-phenyl-7-(pyridin-3-yl)pyrazolo[1,5-a]pyrimidine-2-carboxamide] | 1.25 | 6.91
O=C(NCCCn1ccnc1)c1cc2nc(-c3ccccc3)cc(-c3ccncc3)n2n1 [Example 97, N-(3-(1H-imidazol-1-yl)propyl)-5-phenyl-7-(pyridin-4-yl)pyrazolo[1,5-a]pyrimidine-2-carboxamide] | 4.57 | 3.61
CN1CC(NC(=O)c2cc3nc(N4CCCC4)cc(-c4ccccc4)n3n2)C1 [Example 98, N-(1-methylazetidin-3-yl)-7-phenyl-5-(pyrrolidin-1-yl)pyrazolo[1,5-a]pyrimidine-2-carboxamide] | 4.59 | > 31.2
CN1CC(NC(=O)c2cc3nc(N4CCCCC4)cc(-c4ccccc4)n3n2)C1 [Example 99, N-(1-methylazetidin-3-yl)-7-phenyl-5-(piperidin-1-yl)pyrazolo[1,5-a]pyrimidine-2-carboxamide] | 7.71 | 7.08
CN1CC(NC(=O)c2cc3nc(N4CCC4)cc(-c4ccccc4)n3n2)C1 [Example 100, 5-(azetidin-1-yl)-N-(1-methylazetidin-3-yl)-7-phenylpyrazolo[1,5-a]pyrimidine-2-carboxamide] | 4.01 | > 31.2
